The values that follow come from patent publication US8106197B2, “Aminoheteroaryl compounds as protein kinase inhibitors” (Pfizer Inc., priority 2003, dated 2012).

In experiment [1] the target is T1, GST fusion protein containing the Met kinase domain (Homo sapiens, UniProt P08581).
T1 construct: Purified GST fusion protein containing the Met kinase domain, SUGEN, Inc
The experiment in a line: MET transphosphorylation assay (ELISA, poly(glu-tyr) substrate). The experiment is classed as biochemical.
Experimental: MET Transphosphorylation Assay
This assay is used to measure phosphotyrosine levels on a poly(glutamic acid:tyrosine, 4:1) substrate as a means for identifying agonists/antagonists of met transphosphorylation of the substrate.
Purified GST fusion protein containing the Met kinase domain, SUGEN, Inc.
10% aqueous (MilliQue H2O) DMSO.
2× Kinase Dilution Buffer: for 100 mL, mix 10 mL 1M HEPES at pH 7.5 with 0.4 mL 5% BSA/PBS, 0.2 mL 0.1 M sodium orthovanadate and 1 mL 5M sodium chloride in 88.4 mL dH2O.
4× ATP Reaction Mixture: for 10 mL, mix 0.4 mL 1 M manganese chloride and 0.02 mL 0.1 M ATP in 9.56 mL dH2O.
4× Negative Controls Mixture: for 10 mL, mix 0.4 mL 1 M manganese chloride in 9.6 mL dH2O.
Antibody Dilution Buffer: for 100 mL, mix 10 mL 5% BSA/PBS, 0.5 mL 5% Carnation® Instant Milk in PBS and 0.1 mL 0.1 M sodium orthovanadate in 88.4 mL TBST.
Rabbit polyclonal antophosphotyrosine antibody, SUGEN, Inc.
Goat anti-rabbit horseradish peroxidase conjugated antibody, Biosource, Inc.
ABTS Solution: for 1 L, mix 19.21 g citric acid, 35.49 g Na2HPO4 and 500 mg ABTS with sufficient dH2O to make 1 L.
ABTS/H2O2: mix 15 mL ABST solution with 2 μL H2O2 five minutes before use.
Coat ELISA plates with 2 μg Poly(Glu-Tyr) in 100 μL PBS, hold-overnight at 4° C.
Block plate with 150 μL of 5% BSA/PBS for 60 min.
Wash plate twice with PBS then once with 50 mM Hepes buffer pH 7.4. […]

The next experiment addresses T2, HGFR (Homo sapiens, UniProt P08581).
T2 construct: purchased Upstate 14-526
The experiment in a line: HGFR continuous-coupled spectrophotometric assay. The experiment is classed as biochemical. The conditions noted are these: for inhibition at 1 µM: Table 6, percent c-MET inhibition at 1 μM, read-out: % inhibition; for inhibition at 0.05 µM: Table 5, percent c-MET inhibition at 50 nM; for I(%): Table 3, Ki(μM) or I(%), test concentration not given.

Molecules are shown by their SMILES.

T2 sequence (P08581 974-1390 limits assumed): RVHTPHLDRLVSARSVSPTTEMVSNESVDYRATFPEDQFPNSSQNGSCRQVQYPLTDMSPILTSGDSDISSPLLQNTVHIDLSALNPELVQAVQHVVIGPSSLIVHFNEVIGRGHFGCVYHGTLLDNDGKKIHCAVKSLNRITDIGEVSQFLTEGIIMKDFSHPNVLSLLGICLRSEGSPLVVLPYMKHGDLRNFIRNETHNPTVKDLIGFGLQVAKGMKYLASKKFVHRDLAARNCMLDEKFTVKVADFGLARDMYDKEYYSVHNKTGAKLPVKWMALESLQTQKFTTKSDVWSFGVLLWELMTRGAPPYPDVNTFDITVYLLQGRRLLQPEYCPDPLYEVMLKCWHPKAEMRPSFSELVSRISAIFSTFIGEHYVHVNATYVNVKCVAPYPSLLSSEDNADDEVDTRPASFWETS
T1 sequence (P08581 1078-1345 limits assumed): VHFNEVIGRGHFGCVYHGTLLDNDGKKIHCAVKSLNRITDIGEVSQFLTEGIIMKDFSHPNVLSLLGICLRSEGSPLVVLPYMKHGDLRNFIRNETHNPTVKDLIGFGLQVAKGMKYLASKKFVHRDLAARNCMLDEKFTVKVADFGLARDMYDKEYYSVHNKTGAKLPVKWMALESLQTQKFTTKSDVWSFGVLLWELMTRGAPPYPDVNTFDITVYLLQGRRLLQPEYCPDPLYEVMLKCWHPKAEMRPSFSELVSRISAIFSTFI

In the case of `Nc1ncc(-c2ccccc2)cc1OCc1c(Cl)cccc1Cl` [Example I-9, 3-(2,6-Dichloro-benzyloxy)-5-phenyl-pyridin-2-ylamine], it took 3.9 µM to reach half-maximal inhibition in experiment [1] (IC50).

Turning to `Nc1ncc(-c2ccc(C(=O)N3CCC(N4CCCC4)CC3)cc2)cc1OCc1nc2cccnc2[nH]1`, the “% inhibition” value on HGFR is given as “% inhibition = 17”.

Take `C[C@@H]1CCC[C@H](C)N1CCNC(=O)c1cnc(N)c(OCc2c(Cl)cccc2Cl)c1`: the inhibition (as a rule, the relative decrease from the control value, in per cent) at 1 µM at HGFR turned out to be 2%.

Take `Nc1ncc(-c2ccc(C(=O)N3CCC(N4CCCC4)CC3)cc2)cc1OCc1ccc(-c2cnc(Br)nc2)cc1`: at HGFR, the “% inhibition” value is on record as “% inhibition = 33”.

As to `CCC1CCCCN1C(=O)c1ccc(-c2cnc(N)c(OC(C)c3c(Cl)ccc(F)c3Cl)c2)cc1` (stereo not shown), the inhibition at 0.05 µM at HGFR turned out to be 56%.

On to `Nc1ncc(-c2ccc(C(=O)N3CCC(N4CCCC4)CC3)cc2)cc1OCc1cccc(-c2ccnc(Br)n2)c1`, for which, on HGFR, the “% inhibition” value was “% inhibition = 13”.

For `Nc1ncc(-c2ccc(C(=O)N3CCC(N4CCCC4)CC3)cc2)cc1OCc1ccc(Cl)s1`, the “% inhibition” value on HGFR is “% inhibition = 19”.

Take `Nc1ncc(-c2ccc(C(=O)N3CCC(N4CCCC4)CC3)cc2)cc1OCc1cccc2cccnc12`: at HGFR, the “% inhibition” value is given as “% inhibition = 22”.

As to `Nc1ncc(C(=O)NC2CCSC2=O)cc1OCc1c(Cl)cccc1Cl` (stereo not shown), the inhibition at 1 µM on HGFR was determined as 35%.

Turning to `Cc1ccccc1COc1cc(-c2ccc(C(=O)N3CCC(N4CCCC4)CC3)cc2)cnc1N` [Example I-627, {4-[6-Amino-5-(2-methyl-benzxloxy)-pyridin-3-yl]-phenyl}-(4-pyrrolidin-1-yl-piperidin-1-yl)-methanone], the “I(%)” value on HGFR was 6%.

As for `Nc1ncc(-c2ccc(C(=O)N3CCC(N4CCCC4)CC3)cc2)cc1OCc1cn2cccnc2n1`, the “% inhibition” value on HGFR is “% inhibition = 16”.

In the case of `Nc1ncc(C(=O)NCC2COc3ccccc3O2)cc1OCc1c(Cl)cccc1Cl` (stereo not shown), on HGFR, the inhibition at 1 µM came out at 34%.

As for `Nc1ncc(C(=O)N2CCN(CCCO)CC2)cc1OCc1c(Cl)cccc1Cl`, the inhibition at 1 µM at HGFR worked out at 31%.

`CC1CN(C(=O)c2ccc(-c3cnc(N)c(OCc4ccccc4)c3)cc2)CC(C)N1` (stereo not shown) [Example I-621, {4-(6-Amino-5-benzyloxy-pyridin-3-yl)-phenyl]-(3,5-dimethyl-piperazin-1-yl)-methanone]: at HGFR, the “I(%)” value came out at 6%.

Take `Nc1ncc(C(=O)N2CCC3(CC2)CC(N2CCC(O)CC2)CO3)cc1OCc1c(Cl)cccc1Cl` (stereo not shown): at HGFR, the inhibition at 1 µM came to 28%.

With `Nc1ncc(-c2ccc(C(=O)N3CCC(N4CCCC4)CC3)cc2)cc1OCc1cc(F)cc2c1OCOC2`, on HGFR, the “% inhibition” value is given as “% inhibition = 21”.

As for `Nc1ncc(-c2ccc(C(=O)N3CCC(N4CCCC4)CC3)cc2)cc1OCc1ccc(F)c(F)c1F`, the “% inhibition” value on HGFR was “% inhibition = 19”.

With `COc1ccccc1-c1nc(COc2cc(-c3ccc(C(=O)N4CCC(N5CCCC5)CC4)cc3)cnc2N)no1`, the “% inhibition” value on HGFR is “% inhibition = 8”.

On to `Nc1ncc(C(=O)NCCO)cc1OCc1c(Cl)cccc1Cl`, for which, at HGFR, the inhibition at 1 µM turned out to be 34%.

Take `Nc1ncc(C(=O)NCCc2nc3ccccc3s2)cc1OCc1c(Cl)cccc1Cl`: on HGFR, the inhibition at 1 µM was determined as 26%.

For the compound `COc1cccc(COc2cc(-c3ccc(C(=O)N4CCC(N5CCCC5)CC4)cc3)cnc2N)c1`, the “% inhibition” value on HGFR is given as “% inhibition = 15”.

Turning to `Nc1ncc(C(=O)N2CCc3nnc(CCN4CCOCC4)n3CC2)cc1OCc1c(Cl)cccc1Cl`, the inhibition at 1 µM at HGFR is 27%.

As for `Nc1ncc(-c2ccc(C(=O)N3CCC(N4CCCC4)CC3)cc2)cc1OCc1ccc(Cl)c(Cl)c1`, the “% inhibition” value at HGFR is “% inhibition = 26”.

`Nc1ncc(C(=O)NCC2=CSC3=NCCN23)cc1OCc1c(Cl)cccc1Cl`: on HGFR, the inhibition at 1 µM was 99%.

For the compound `Nc1ncc(-c2ccc(C(=O)N3CCC(N4CCCC4)CC3)cc2)cc1OCc1nc2ccc(Cl)cc2[nH]1`, the “% inhibition” value on HGFR is given as “% inhibition = 16”.

With `COCCN1CCN(C(=O)c2cnc(N)c(OCc3c(Cl)cccc3Cl)c2)CC1`, the inhibition at 1 µM on HGFR stood at 27%.

On to `Nc1ncc(-c2ccc(C(=O)N3CCC(N4CCCC4)CC3)cc2)cc1OCc1cc(F)c(F)c(F)c1`, for which, on HGFR, the “% inhibition” value is reported as “% inhibition = 19”.

Compound `CC(Oc1cc(-c2ccc(C(=O)N[C@H](CO)C(C)C)cc2)cnc1N)c1c(Cl)ccc(F)c1Cl` (stereo partly shown) displayed an inhibition at 0.05 µM against HGFR of 74%.

In the case of `CC(=O)NCCNC(=O)c1cnc(N)c(OCc2c(Cl)cccc2Cl)c1`, the inhibition at 1 µM on HGFR was 35%.

Regarding `Cc1nc(COc2cc(-c3ccc(C(=O)N4CCC(N5CCCC5)CC4)cc3)cnc2N)cs1`, the “% inhibition” value on HGFR is “% inhibition = 6”.

Compound `CC(Oc1cc(-c2ccc(C(=O)N3CCCCC3COc3ccccc3)cc2)cnc1N)c1c(Cl)ccc(F)c1Cl` (stereo not shown) came in with an inhibition at 0.05 µM on HGFR of 53%.

In the case of `COc1cc(CCNC(=O)c2cnc(N)c(OCc3c(Cl)cccc3Cl)c2)cc(OC)c1O`, on HGFR, the inhibition at 1 µM amounted to 25%.

Consider `Nc1ncc(C(=O)NC[C@H]2CC[C@H](c3nc4ccccc4[nH]3)CC2)cc1OCc1c(Cl)cccc1Cl`, for which, at HGFR, the inhibition at 1 µM came to 38%.

Take `Nc1ncc(C(=O)N2CCC3(CCNC3=O)CC2)cc1OCc1c(Cl)cccc1Cl`: the inhibition at 1 µM on HGFR came out at 27%.

For the compound `Nc1ncc(-c2ccc(C(=O)N3CCC(N4CCCC4)CC3)cc2)cc1OCc1ccc(Cl)cc1`, the “% inhibition” value at HGFR is given as “% inhibition = 15”.

On HGFR, `COc1ccccc1CC(C)N(C)C(=O)c1ccc(-c2cnc(N)c(OC(C)c3c(Cl)ccc(F)c3Cl)c2)cc1` (stereo not shown) registered an inhibition at 0.05 µM of 55%.

On to `Nc1ncc(C(=O)N2CCC(CO)CC2)cc1OCc1c(Cl)cccc1Cl`, for which the inhibition at 1 µM at HGFR came out at 43%.

As for `CCCC(CO)NC(=O)c1cnc(N)c(OCc2c(Cl)cccc2Cl)c1` (stereo not shown), the inhibition at 1 µM on HGFR was 30%.

Regarding `CC(Oc1cc(-c2ccc(C(=O)N[C@H]3CC[C@H](CO)CC3)cc2)cnc1N)c1c(Cl)ccc(F)c1Cl` (stereo partly shown), the inhibition at 0.05 µM on HGFR came to 68%.

Take `CC(C)(CO)CNC(=O)c1cnc(N)c(OCc2c(Cl)cccc2Cl)c1`: on HGFR, the inhibition at 1 µM was 39%.

`Cc1nc2ccc(COc3cc(-c4ccc(C(=O)N5CCC(N6CCCC6)CC5)cc4)cnc3N)cc2c(=O)[nH]1`: the “% inhibition” value on HGFR is listed as “% inhibition = 12”.

In the case of `Cc1ccccc1-c1cnc(N)c(OC(C)c2c(Cl)ccc(F)c2Cl)c1` (stereo not shown) [Example I-565, 3-[1-(2,6-Dichloro-3-fluoro-phenyl)-ethoxy]-5-o-tolyl-pyridin-2-ylamine], at HGFR, the “I(%)” value is reported as 25%.

Regarding `Nc1ncc(C(=O)N2CCN(CC(=O)N3CCCCC3)CC2)cc1OCc1c(Cl)cccc1Cl`, the inhibition at 1 µM on HGFR was 24%.
